Values of other authors as cited in patent publication US8530500B2, “Stable pharmaceutical omeprazole formulation for oral administration” (Vetegen, LLC, priority 2009, dated 2013).
In brackets after ≈: the same amount, converted by molar mass.

What was measured:
[1] = not given; remark: listed apart in the source

Structure (SMILES): COc1ccc2[nH]c([S+]([O-])Cc3ncc(C)c(OC)c3C)nc2c1 (stereo not shown) [omeprazole]
- half-life at neutral pH (neutral pH): about 14 hours
- stability at pH levels above 7 (pH above 7, protected from light and extremes in temperature and humidity): very stable
- stability in water, ethanol or acidic environments (water, ethanol or acidic environments): not very stable
- solubility in dimethyl sulfoxide (DMSO) ([1]; DMSO): > 19 mg/mL
- solubility in Polyethylene Glycol 400 ([1]; Polyethylene Glycol 400): 20 mg/mL (≈ 57.9 mM)
- solubility in ethanol ([1]; ethanol): 4.5 mg/mL (≈ 13 mM)
- solubility in water ([1]; water): 0.5 mg/mL (≈ 1.45 mM)
